Data from PubChem BioAssay (NCI).
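Following 48 hours of exposure in 96-well plates, responses at five concentrations were used to interpolate endpoints linearly. The concentration for 50% growth inhibition is given as GI50. At the TGI there is no net growth.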

Experiments:
Assay in all cases: NCI tumour cell line growth inhibition, 48 h
NCI-H23 lung = test system: NCI-H23 lung
RPMI-8226 leukemia = test system: RPMI-8226 leukemia
SNB-19 CNS = test system: SNB-19 CNS
A498 renal = test system: A498 renal
HCC-2998 colon = test system: HCC-2998 colon
PC-3 prostate = test system: PC-3 prostate
SK-MEL-28 melanoma = test system: SK-MEL-28 melanoma
OVCAR-4 ovarian = test system: OVCAR-4 ovarian
DU-145 prostate = test system: DU-145 prostate
SN12C renal = test system: SN12C renal

Structure (SMILES) | GI50 (NCI-H23 lung) | TGI (NCI-H23 lung) | GI50 (RPMI-8226 leukemia) | TGI (RPMI-8226 leukemia) | GI50 (SNB-19 CNS) | TGI (SNB-19 CNS) | GI50 (A498 renal) | TGI (A498 renal) | GI50 (HCC-2998 colon) | TGI (HCC-2998 colon) | GI50 (PC-3 prostate) | TGI (PC-3 prostate) | GI50 (SK-MEL-28 melanoma) | TGI (SK-MEL-28 melanoma) | GI50 (OVCAR-4 ovarian) | TGI (OVCAR-4 ovarian) | GI50 (DU-145 prostate) | TGI (DU-145 prostate) | GI50 (SN12C renal) | TGI (SN12C renal)
COc1ccc2c(c1)nc(NNC(=O)c1cnccn1)c1cccn12 | 640 nM | 5240 nM | 435 nM | 4510 nM | 381 nM | 10300 nM | 1310 nM | 2930 nM | 1050 nM | 2430 nM | 285 nM | 4850 nM | 444 nM | 3520 nM | 114 nM | 2300 nM | 156 nM | 6300 nM | 408 nM | 3370 nM
O=C1CCc2c(sc3[nH]c(=S)n(-c4cc(C(F)(F)F)cc(C(F)(F)F)c4)c(=O)c23)C1 | 346 nM | 2240 nM | 411 nM | 3030 nM | 384 nM | > 37000 nM | 2150 nM | 7440 nM | 509 nM | 1910 nM | 307 nM | 2350 nM | 459 nM | 3700 nM | 359 nM | 1720 nM | 775 nM | > 40000 nM | 352 nM | 11800 nM
